Assay results as given in patent EP4603105A1, “PHARMACEUTICAL COMPOSITION CONTAINING CYCLIC COMPOUND HAVING SELECTIVE KRAS INHIBITORY EFFECT AGAINST HRAS AND NRAS” (CHUGAI SEIYAKU KABUSHIKI KAISHA, priority 2022, dated 2024).
pIC50: −log10 of the molar value. Where a SMILES comes first, the peptide text is derived from it. Bridges are numbered along the chain shown (N, C = ends). [ ]: non-standard residue; d: D form. The star is where a group is joined. hPhe(3,5-F2-4-CF3) = N[C@@H](CCc1cc(F)c(C(F)(F)F)c(F)c1)C(=O)O; hPhe(3-Cl-4-CF3) = N[C@@H](CCc1ccc(C(F)(F)F)c(Cl)c1)C(=O)O; NPrPhe(4-CF3) = CCCN[C@@H](Cc1ccc(C(F)(F)F)cc1)C(=O)O; hPhe(3,4-Cl2) = N[C@@H](CCc1ccc(Cl)c(Cl)c1)C(=O)O; NMeGly(cPent) = CN[C@H](C(=O)O)C1CCCC1; NMeNva(3-Et) = CCC(CC)[C@H](NC)C(=O)O; NMeD = CN[C@@H](CC(=O)O)C(=O)O; NMeL = CN[C@@H](CC(C)C)C(=O)O; αMeL = CC(C)C[C@](C)(N)C(=O)O; Morpholide = C1CN(*)CCO1; NMeA = CN[C@@H](C)C(=O)O; Ac5c = NC1(C(=O)O)CCCC1; Aze = O=C(O)[C@@H]1CCN1; Ac4c = NC1(C(=O)O)CCC1; Sar = CNCC(=O)O

Columns and labels:
[1] = molecular target: GDP-bound NRAS wild-type protein (Homo sapiens, UniProt P01111); experiment: Binding to NRAS by surface plasmon resonance (SPR), KD and KD ratio to KRAS
Outline: (§1)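 Compound binding is evaluated by SPR single-cycle kinetics, with concentrations added intermittently from low to high for 75 s each. Target surfaces carry GDP-loaded biotinylated Avi-RAS at about 100–300 RU, regenerated after each cycle; temperature 30°C. A 1:1 binding model gives KD.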

HRAS wild-type protein = HRAS wild-type protein (Homo sapiens, UniProt P01112); experiment: Binding to HRAS by surface plasmon resonance (SPR), KD and KD ratio to KRAS
Outline: as §1

[2] = test system: human lung cancer strain NCI-H441; format: cell-based
Outline: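 Proliferation was scored by […] measured after the reagent was added to cultures kept at 37°C in 5% carbon dioxide.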

[3] = ratio of KD for GDP-bound NRAS wild-type protein to KD for KRAS
[4] = ratio of KD for HRAS wild-type protein to KD for KRAS
[5] = ratio of the KD value with respect to GDP-bound NRAS wild-type protein to the KD value with respect to KRAS
[6] = ratio of the KD value with respect to HRAS wild-type protein to the KD value with respect to KRAS

Sequence of HRAS wild-type protein (P01112 whole entry): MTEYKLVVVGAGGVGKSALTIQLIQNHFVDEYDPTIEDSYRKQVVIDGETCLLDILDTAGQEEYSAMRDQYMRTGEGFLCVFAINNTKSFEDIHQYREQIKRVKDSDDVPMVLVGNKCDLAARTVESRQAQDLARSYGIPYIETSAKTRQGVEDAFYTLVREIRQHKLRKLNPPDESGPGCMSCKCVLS
Sequence of GDP-bound NRAS wild-type protein (P01111 whole entry): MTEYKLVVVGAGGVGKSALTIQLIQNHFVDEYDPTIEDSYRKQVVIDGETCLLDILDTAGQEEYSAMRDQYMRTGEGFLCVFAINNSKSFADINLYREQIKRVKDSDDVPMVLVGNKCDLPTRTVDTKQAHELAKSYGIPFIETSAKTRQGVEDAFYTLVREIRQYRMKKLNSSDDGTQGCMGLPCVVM

pIC50 [2]	Structure (SMILES)	NRAS /KRAS [1, 3]	HRAS /KRAS (HRAS wild-type protein; [4])	NRAS /KRAS [1, 5]	HRAS /KRAS (HRAS wild-type protein; [6])	NRAS /KRAS ([1]; ratio of KD value for GDP-bound NRAS wild-type protein to KD value for KRAS (SPR))	HRAS /KRAS (HRAS wild-type protein; ratio of KD value for HRAS wild-type protein to KD value for KRAS (SPR))
8.14	CCC[C@H]1C(=O)N[C@@H]([C@@H](C)CC)C(=O)N(C)CC(=O)N(C)[C@H]2C/C=C\CCN(C2=O)[C@@H](Cc2ccc(C(F)(F)F)cc2)C(=O)N(C)CC(=O)N[C@@H](CCc2ccc(Cl)c(C(F)(F)F)c2)C(=O)N2C[C@H](OCC)C[C@H]2C(=O)NC2(CC(C)(C)C2)C(=O)N(C)[C@@H](C2CCCC2)C(=O)N(C)[C@H](C(=O)N(C)C)CC(=O)N1C [PP2784]	A (a compound having 10 or more and less than 20 is denoted as A)	A (a compound having 10 or more and less than 20 is denoted as A)	–	–	–	–
8.23	C#CC[C@H]1C(=O)N[C@@H]([C@@H](C)CC)C(=O)N(C)CC(=O)N(C)[C@H]2C/C=C\CCN(C2=O)[C@@H](Cc2ccc(C(F)(F)F)cc2)C(=O)N(C)CC(=O)N[C@@H](CCc2cc(F)c(C(F)(F)F)c(F)c2)C(=O)N2C[C@H](OCC)C[C@H]2C(=O)NC2(CC(C)(C)C2)C(=O)N(C)[C@@H](C2CCCC2)C(=O)N(C)[C@H](C(=O)N(C)CCC)CC(=O)N1C [PP2074]	–	–	A (a compound having 10 or more and less than 20 is denoted as A)	A (a compound having 10 or more and less than 20 is denoted as A)	–	–
8.89	CCO[C@@H]1C[C@H]2C(=O)N(C)C3(CC(C)(C)C3)C(=O)N(C)[C@@H](C3CCCC3)C(=O)N(C)[C@H](C(=O)N(C)C)CC(=O)N(C)[C@H]3CCCCCCc4ccc(cc4)C[C@@H](C(=O)N(C)CC(=O)N[C@@H](CCc4ccc(C(F)(F)F)c(OC)c4)C(=O)N2C1)N1CC/C=C\C[C@@H](C1=O)N(C)C(=O)CN(C)C(=O)[C@H]([C@@H](C)CC)NC3=O [PP3090]	A (a compound having 10 or more and less than 20 is denoted as A)	B (a compound having 3 or more and less than 10 is denoted as B)	–	–	–	–
7.86	CC[C@H](C)[C@@H]1NC(=O)[C@@H]2CCC/C=C/c3ccc(cc3)C[C@@H](C(=O)N(C)CC(=O)N[C@@H](CCc3ccc(Cl)c(Cl)c3)C(=O)N3C[C@H](OC(C)C)C[C@H]3C(=O)NC3(CC(C)(C)C3)C(=O)N(C)[C@@H](C3CCCC3)C(=O)N(C)[C@H](C(=O)N3CCCC3)CC(=O)N2C)N2CC/C=C\C[C@@H](C2=O)N(C)C(=O)CN(C)C1=O [PP2596]	A (a compound having 10 or more and less than 20 is denoted as A)	A (a compound having 10 or more and less than 20 is denoted as A)	–	–	–	–
8.10	CC[C@H](C)[C@@H]1NC(=O)[C@@H]2CCCc3ccc(cc3)C[C@@H](C(=O)N(C)CC(=O)N[C@@H](CCc3ccc(C(F)(F)F)c(OC)c3)C(=O)N3C[C@H](OC4CCCC4)C[C@H]3C(=O)NC3(CC(C)(C)C3)C(=O)N(C)[C@@H](C3CCCC3)C(=O)N(C)[C@H](C(=O)N(C)CC)CC(=O)N2C)N2CC/C=C\C[C@@H](C2=O)N(C)C(=O)CN(C)C1=O [PP3086]	B (a compound having 3 or more and less than 10 is denoted as B)	B (a compound having 3 or more and less than 10 is denoted as B)	–	–	–	–
7.41	CCO[C@@H]1C[C@H]2C(=O)NC3(CC(C)(C)C3)C(=O)N(C)[C@@H](C(CC)CC)C(=O)N(C)[C@H](C(=O)N3CCCC3)CC(=O)N(C)[C@@H](COC)C(=O)N[C@@H]([C@@H](C)CC)C(=O)N(C)CC(=O)N(C)[C@H]3C/C=C\CCN(C3=O)[C@@H](Cc3ccc(C)cc3)C(=O)N(C)CC(=O)N[C@@H](CCc3ccc(C(F)(F)F)c(OC)c3)C(=O)N2C1 [PP2167]	–	–	AA (a compound having 20 or more is denoted as AA)	A (a compound having 10 or more and less than 20 is denoted as A)	–	–
8.29	CCC[C@H]1C(=O)N[C@@H](C2CCCC2)C(=O)N(C)CC(=O)N(C)[C@H]2C/C=C\CCN(C2=O)[C@@H](Cc2ccc(C(F)(F)F)cc2)C(=O)N(C)CC(=O)N[C@@H](CCc2ccc(C(F)(F)F)c(Cl)c2)C(=O)N2C[C@H](OCC)C[C@H]2C(=O)NC2(CC(C)(C)C2)C(=O)N(C)[C@@H](CC(C)(C)C)C(=O)N(C)[C@H](C(=O)N(C)C)CC(=O)N1C [PP2971]	A (a compound having 10 or more and less than 20 is denoted as A)	A (a compound having 10 or more and less than 20 is denoted as A)	–	–	–	–
8.05	CCC[C@H]1C(=O)N[C@@H](C2CCCC2)C(=O)N(C)CC(=O)N(C)[C@H]2C/C=C\CCN(C2=O)[C@@H](Cc2ccc(C)cc2)C(=O)N(C)CC(=O)N[C@@H](CCc2cc(F)c(C(F)(F)F)c(F)c2)C(=O)N2CC3(CC3)C[C@H]2C(=O)NC2(CC(C)(C)C2)C(=O)N(C)[C@@H](C2CCCC2)C(=O)N(C)[C@H](C(=O)N(C)C)CC(=O)N1C [PP2990]	A (a compound having 10 or more and less than 20 is denoted as A)	A (a compound having 10 or more and less than 20 is denoted as A)	–	–	–	–

The next lines start with the compound.

Structure (SMILES)	pIC50 [2]	NRAS /KRAS [1, 3]	HRAS /KRAS (HRAS wild-type protein; [4])	NRAS /KRAS [1, 5]	HRAS /KRAS (HRAS wild-type protein; [6])	NRAS /KRAS ([1]; ratio of KD value for GDP-bound NRAS wild-type protein to KD value for KRAS (SPR))	HRAS /KRAS (HRAS wild-type protein; ratio of KD value for HRAS wild-type protein to KD value for KRAS (SPR))
CC[C@H](C)[C@@H]1NC(=O)[C@H](COC)N(C)C(=O)C[C@@H](C(=O)N2CCOCC2)N(C)C(=O)[C@H](C2CCCC2)N(C)C(=O)C2(CCC2)NC(=O)[C@@H]2CC(F)(F)CN2C(=O)[C@H](CCc2cc(F)c(C(F)(F)F)c(F)c2)NC(=O)CN(C)C(=O)[C@H](Cc2ccc(C(F)(F)F)cc2)N2CCCCC[C@@H](C2=O)N(C)C(=O)[C@@H]2CCN2C1=O [PP0866]	6.70	B (a compound having 3 or more and less than 10 is denoted as B)	B (a compound having 3 or more and less than 10 is denoted as B)	–	–	–	–
CC[C@H](C)[C@@H]1NC(=O)[C@H](CC(C)C)N(C)C(=O)C[C@@H](C(=O)N(C)C)N(C)C(=O)[C@H](C2CCCC2)N(C)C(=O)C2(CCC2)NC(=O)[C@@H]2CCCN2C(=O)[C@H](CCc2cc(F)c(C(F)(F)F)c(F)c2)NC(=O)CN(C)C(=O)[C@H](Cc2ccc(C(F)(F)F)cc2)N2CCCCC[C@@H](C2=O)N(C)C(=O)CN(C)C1=O [PP0512]	7.53	–	–	B (a compound having 3 or more and less than 10 is denoted as B)	B (a compound having 3 or more and less than 10 is denoted as B)	–	–
CCCN1C(=O)[C@@H]2CCN2C(=O)[C@H](C)N(C)C(=O)[C@H]([C@@H](C)CC)NC(=O)[C@H](CC(C)C)N(C)C(=O)C[C@@H](C(=O)N2CCOCC2)N(C)C(=O)[C@H](C2CCCC2)N(C)C(=O)C2(CCCC2)NC(=O)[C@@H]2CCCN2C(=O)[C@H](CCc2ccc(Cl)c(Cl)c2)NC(=O)CN(C)C(=O)[C@@H]1Cc1ccc(C(F)(F)F)cc1 [PP0227] ([NMeL]I[NMeA][Aze][NPrPhe(4-CF3)][Sar][hPhe(3,4-Cl2)]P[Ac5c][NMeGly(cPent)][NMeD]-Morpholide; lactam N-11)	8.39	C (A compound having a KD ratio of 0.1 or more and less than 3 is denoted as C)	B (a compound having 3 or more and less than 10 is denoted as B)	–	–	–	–
CCO[C@@H]1C[C@H]2C(=O)NC3(CC(C)(C)C3)C(=O)N(C)[C@@H](C3CCCC3)C(=O)N(C)[C@H](C(=O)N(C)CC)CC(=O)N(C)[C@@H](CC)C(=O)N[C@@H]([C@@H](C)CC)C(=O)N(C)CC(=O)N(C)[C@H]3C/C=C\CCN(C3=O)[C@@H](Cc3ccc(C(F)(F)F)cc3)C(=O)N(C)CC(=O)N[C@@H](CCc3cc(F)c(C(F)(F)F)c(F)c3)C(=O)N2C1 [PP1579]	8.39	–	–	–	–	A (a compound having 10 or more and less than 20 is denoted as A)	B (a compound having 3 or more and less than 10 is denoted as B)
CCCN1C(=O)CN(C)C(=O)CN(C)C(=O)[C@H]([C@@H](C)CC)NC(=O)[C@H](CC(C)C)N(C)C(=O)C[C@@H](C(=O)N2CCOCC2)N(C)C(=O)[C@H](C(CC)CC)N(C)C(=O)C2(CCC2)NC(=O)[C@@H]2CCCN2C(=O)[C@H](CCc2ccc(C(F)(F)F)c(Cl)c2)NC(=O)CN(C)C(=O)[C@@H]1Cc1ccc(C(F)(F)F)cc1 [PP1958] ([NMeL]I[Sar][Sar][NPrPhe(4-CF3)][Sar][hPhe(3-Cl-4-CF3)]P[Ac4c][NMeNva(3-Et)][NMeD]-Morpholide; lactam N-11)	7.24	–	–	B (a compound having 3 or more and less than 10 is denoted as B)	B (a compound having 3 or more and less than 10 is denoted as B)	–	–
CC[C@H](C)[C@@H]1NC(=O)[C@H](C)N(C)C(=O)C[C@@H](C(=O)N(C)C)N(C)C(=O)[C@H](C2CCCC2)N(C)C(=O)C2(CCC2)NC(=O)[C@@H]2CC(F)(F)CN2C(=O)[C@H](CCc2cc(F)c(C(F)(F)F)c(F)c2)NC(=O)CN(C)C(=O)[C@H](Cc2ccc(C(F)(F)F)cc2)N2CCCCC[C@@H](C2=O)N(C)C(=O)CN(C)C1=O [PP0473]	7.83	–	–	C (A compound having a KD ratio of 0.1 or more and less than 3 is denoted as C)	C (A compound having a KD ratio of 0.1 or more and less than 3 is denoted as C)	–	–
CCCN1C(=O)[C@@H]2CCN2C(=O)CN(C)C(=O)[C@H]([C@@H](C)CC)NC(=O)[C@H](CC(C)C)N(C)C(=O)C[C@@H](C(=O)N2CCOCC2)N(C)C(=O)[C@H](C2CCCC2)N(C)C(=O)[C@](C)(CC(C)C)NC(=O)[C@@H]2CCCN2C(=O)[C@H](CCc2cc(F)c(C(F)(F)F)c(F)c2)NC(=O)CN(C)C(=O)[C@@H]1Cc1ccc(C(F)(F)F)cc1 [PP0795] ([NMeL]I[Sar][Aze][NPrPhe(4-CF3)][Sar][hPhe(3,5-F2-4-CF3)]P[αMeL][NMeGly(cPent)][NMeD]-Morpholide; lactam N-11)	6.45	C (A compound having a KD ratio of 0.1 or more and less than 3 is denoted as C)	B (a compound having 3 or more and less than 10 is denoted as B)	–	–	–	–
